Consider 23 compounds from US10364226B2, “Pyridazinone compounds and uses thereof” (priority 2013, dated 2019).

SMILES strings stand for the structures. Like-named read-outs stand apart in the source and are kept apart here.

In assay [1] the test system is Influenza strain A549 A/WSN/33 (H1N1). Put plainly: Influenza Antiviral Assay. Format: cell-based, Influenza A virus. Particulars: neuraminidase fluorescence readout, read-out: % Inhibition.
For another assay, the target named is EN PA (Influenza A virus, UniProt P15659). Put plainly: EN PA FRET Inhibition Assay. Format: biochemical. Particulars: read-out: Potency.

Consider `O=C(NCc1ccncc1)c1nn(CC2(c3ccccc3)CCCC2)cc(O)c1=O` [Compound 692], for which the EC50 in assay [1] (Influenza A virus, A549, 20 h) is less than 20 µM. In addition, on EN PA, the IC50 was less than 0.1 µM.

On to `O=C(NCc1cncnc1)c1nn(CC2(c3ccccc3)CCCC2)cc(O)c1=O` [Compound 693], for which the EC50 in assay [1] (Influenza A virus, A549, 20 h) is less than 20 µM. In addition, the IC50 at EN PA is less than 0.1 µM.

In the case of `CNC(=O)c1nn(CC2(n3cc(C(C)C)c4cccnc43)CCCC2)cc(O)c1=O` [Compound 694], in assay [1] (Influenza A virus, A549, 20 h), the EC50 was less than 20 µM. In addition, the IC50 on EN PA lay within 0.1 to 1 µM.

Take `CNC(=O)c1nn(CC2(n3cc(C(F)(F)F)c4cccnc43)CCCC2)cc(OC(=O)C(C)(C)C)c1=O` [Compound 695]: in assay [1] (Influenza A virus, A549, 20 h), the EC50 was less than 20 µM. Further, the IC50 at EN PA is less than 0.1 µM.

Take `CNC(=O)c1nn(CC2(c3cccc(Cl)c3)CCCC2)cc(O)c1=O` [Compound 700]: in assay [1] (Influenza A virus, A549, 20 h), the EC50 is less than 20 µM. Also, the IC50 on EN PA was less than 0.1 µM.

As for `CNC(=O)c1nn(CC2(c3cccc(OC)c3)CCCC2)cc(O)c1=O` [Compound 703], the EC50 in assay [1] (Influenza A virus, A549, 20 h) is less than 20 µM. Also, the IC50 at EN PA is less than 0.1 µM.

As for `CNC(=O)c1nn(CC(C)(C)n2cc(C(F)(F)F)c3cccnc32)cc(O)c1=O` [Compound 704], the EC50 in assay [1] (Influenza A virus, A549, 20 h) was less than 20 µM. For the same compound, on EN PA, the IC50 is less than 0.1 µM.

Consider `NC(=O)c1nn(CC2(c3ccccc3)CCCC2)cc(O)c1=O` [Compound 708], for which the EC50 in assay [1] (Influenza A virus, A549, 20 h) was less than 20 µM. On EN PA, the IC50 was less than 0.1 µM.

Regarding `O=C(NCc1ccc(F)c(Cl)c1)c1nn(CC2(c3ccccc3)CCCC2)cc(O)c1=O` [Compound 709], the EC50 in assay [1] (Influenza A virus, A549, 20 h) is less than 20 µM. Further, the IC50 on EN PA is less than 0.1 µM.

Consider `CNC(=O)c1nn(CC2(n3cc(C4CC4)c4cccnc43)CCCC2)cc(O)c1=O` [Compound 718], for which, in assay [1] (Influenza A virus, A549, 20 h), the EC50 was less than 20 µM. In addition, the IC50 on EN PA was less than 0.1 µM.

With `O=C(Nc1ccc(Cl)cc1)c1nn(CC2(c3ccccc3)CCCC2)cc(O)c1=O` [Compound 720], the EC50 in assay [1] (Influenza A virus, A549, 20 h) was more than 100 µM. Moreover, at EN PA, the IC50 was less than 0.1 µM.

On to `NC(=O)c1nn(CC2(c3cccc(-c4ccccc4)c3)CCCC2)cc(O)c1=O` [Compound 722], for which the EC50 in assay [1] (Influenza A virus, A549, 20 h) was more than 100 µM. The IC50 on EN PA was less than 0.1 µM.

Take `CC(C)c1cccc(C2(Cn3cc(O)c(=O)c(C(=O)O)n3)CCCC2)c1` [Compound 723]: in assay [1] (Influenza A virus, A549, 20 h), the EC50 fell in the range of 20 to 100 µM. Moreover, the IC50 at EN PA is less than 0.1 µM.

With `CC(C)c1cccc(C2(Cn3cc(O)c(=O)c(C(N)=O)n3)CCCC2)c1` [Compound 730], the EC50 in assay [1] (Influenza A virus, A549, 20 h) was less than 20 µM. In addition, on EN PA, the IC50 was less than 0.1 µM.

In the case of `CCc1cccc(C2(Cn3cc(O)c(=O)c(C(=O)NC)n3)CCCC2)c1` [Compound 733], the EC50 in assay [1] (Influenza A virus, A549, 20 h) is less than 20 µM. In addition, the IC50 at EN PA is less than 0.1 µM.

Regarding `C=Cc1cccc(C2(Cn3cc(O)c(=O)c(C(=O)NC)n3)CCCC2)c1` [Compound 738], the EC50 in assay [1] (Influenza A virus, A549, 20 h) is less than 20 µM. In addition, the IC50 on EN PA is less than 0.1 µM.

Consider `CNC(=O)c1nn(CC2(n3cc(C)c4ccccc43)CCCC2)cc(O)c1=O` [Compound 740], for which, in assay [1] (Influenza A virus, A549, 20 h), the EC50 is less than 20 µM. The IC50 on EN PA is less than 0.1 µM.

As for `CCNC(=O)c1nn(CC2(n3cc(C)c4cccnc43)CCCC2)cc(O)c1=O` [Compound 741], the EC50 in assay [1] (Influenza A virus, A549, 20 h) is less than 20 µM. Also, the IC50 at EN PA was less than 0.1 µM.

For the compound `CNC(=O)c1nn(CC2(n3cc(-c4ccccc4)c4cccnc43)CCCC2)cc(O)c1=O` [Compound 742], in assay [1], the EC50 was less than 20 µM. Besides, at EN PA, the IC50 was less than 0.1 µM.

For `CNC(=O)c1nn(CC2(n3cc(Cl)c4cccnc43)CCCC2)cc(O)c1=O` [Compound 743], the EC50 in assay [1] (Influenza A virus, A549, 20 h) is less than 20 µM. On EN PA, the IC50 was less than 0.1 µM.

Take `CCc1ccc(C2(Cn3cc(O)c(=O)c(C(=O)NC)n3)CCCC2)cc1` [Compound 747]: in assay [1] (Influenza A virus, A549, 20 h), the EC50 was less than 20 µM. For the same compound, the IC50 at EN PA is less than 0.1 µM.

Take `CNC(=O)c1nn(CC2(c3cccc4ccccc34)CCCC2)cc(O)c1=O` [Compound 749]: the EC50 in assay [1] (Influenza A virus, A549, 20 h) is less than 20 µM. Also, the IC50 on EN PA is less than 0.1 µM.

In the case of `O=C(NCc1ccc(F)c(Cl)c1)c1nn(CC2(c3cccc(Cl)c3)CCCC2)cc(O)c1=O` [Compound 750], in assay [1] (Influenza A virus, A549, 20 h), the EC50 is less than 20 µM. Moreover, the IC50 at EN PA is less than 0.1 µM.
